# In PubChem BioAssay (NCI):
#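 Exposure lasted 48 hours, with cells grown in 96-well plates and compounds tested at five concentrations. Abbreviation: GI50, concentration required for 50% inhibition of growth. TGI: concentration producing complete growth inhibition.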
# Experiments:
# Assay in all cases: NCI-60 cell line screen, 48 h
# [1] = system: ACHN renal
# [2] = system: 786-0 renal
# [3] = system: MOLT-4 leukemia
# [4] = system: NCI-H23 lung
# [5] = system: HCC-2998 colon
# [6] = system: SF-539 CNS
# [7] = system: OVCAR-4 ovarian
# [8] = system: HCT-15 colon
# [9] = system: OVCAR-8 ovarian
# [10] = system: HCT-116 colon
# [11] = system: SK-MEL-2 melanoma
# [12] = system: HT29 colon
# [13] = system: HOP-62 NSCLC
# [14] = system: A549 NSCLC
# [15] = system: DMS 273 small cell lung
# [16] = system: NCI-H226 lung
# [17] = system: OVCAR-5 ovarian
# [18] = system: K-562 leukemia
# [19] = system: UACC-62 melanoma
# [20] = system: SK-OV-3 ovarian
# [21] = system: LXFL 529 NSCLC
# [22] = system: U251 CNS
# [23] = system: SK-MEL-28 melanoma
# [24] = system: M19-MEL melanoma
# [25] = system: RPMI-8226 leukemia
# [26] = system: DLD-1 colon
# [27] = system: HOP-92 NSCLC
# [28] = system: NCI-H460 lung
# [29] = system: SNB-75 CNS
# [30] = system: LOX IMVI melanoma
# [31] = system: SNB-78 CNS
# [32] = system: CAKI-1 renal
# [33] = system: SF-268 CNS
# [34] = system: SW-620 colon
# [35] = system: CCRF-CEM leukemia
# [36] = system: RXF 393 renal
# [37] = system: UO-31 renal
# [38] = system: HOP-18 NSCLC
# [39] = system: XF 498 CNS
# [40] = system: NCI-H522 lung
# [41] = system: A498 renal
# [42] = system: MALME-3M melanoma
# [43] = system: RXF-631 renal
# [44] = system: EKVX NSCLC
# [45] = system: TK-10 renal
# [46] = system: M14 melanoma
# [47] = system: COLO 205 colon
# [48] = system: KM12 colon
# [49] = system: OVCAR-3 ovarian
# [50] = system: SN12C renal
# [51] = system: SNB-19 CNS
# [52] = system: SK-MEL-5 melanoma
# [53] = system: KM20L2 colon
# [54] = system: UACC-257 melanoma
# [55] = system: DMS 114 small cell lung
# [56] = system: IGROV1 ovarian
# [57] = system: HL-60(TB) leukemia
# [58] = system: SR leukemia
# [59] = system: SF-295 CNS
smiles,measurement,setting,value
CCOC(=O)Cc1nc2ccc3c(c2[nH]c1=O)C(=O)c1ccccc1C3=O,TGI,[1],> 100 µM
same,TGI,[2],> 100 µM
same,TGI,[3],54.2 µM
same,TGI,[4],> 100 µM
same,TGI,[5],> 100 µM
same,TGI,[6],> 100 µM
same,TGI,[7],> 100 µM
same,TGI,[8],> 100 µM
same,TGI,[9],> 100 µM
same,TGI,[10],> 100 µM
same,TGI,[11],> 100 µM
same,TGI,[12],> 100 µM
same,TGI,[13],> 100 µM
same,TGI,[14],> 100 µM
same,TGI,[15],> 100 µM
same,TGI,[16],> 100 µM
same,TGI,[17],> 100 µM
same,TGI,[18],> 100 µM
same,TGI,[19],> 100 µM
same,TGI,[20],> 100 µM
same,TGI,[21],> 100 µM
same,TGI,[22],> 100 µM
same,TGI,[23],> 100 µM
same,TGI,[24],> 100 µM
same,TGI,[25],> 100 µM
same,TGI,[26],> 100 µM
same,TGI,[27],> 100 µM
same,TGI,[28],> 100 µM
same,TGI,[29],> 100 µM
same,TGI,[30],> 100 µM
same,TGI,[31],> 100 µM
same,TGI,[32],> 100 µM
same,TGI,[33],> 100 µM
same,TGI,[34],> 100 µM
same,TGI,[35],> 100 µM
same,TGI,[36],63.1 µM
same,TGI,[37],> 100 µM
same,TGI,[38],91.6 µM
same,TGI,[39],> 100 µM
same,TGI,[40],> 100 µM
same,TGI,[41],> 100 µM
same,TGI,[42],> 100 µM
same,TGI,[43],> 100 µM
same,TGI,[44],28.5 µM
same,TGI,[45],> 100 µM
same,TGI,[46],> 100 µM
same,TGI,[47],> 100 µM
same,TGI,[48],> 100 µM
same,TGI,[49],> 100 µM
same,TGI,[50],> 100 µM
same,TGI,[51],> 100 µM
same,TGI,[52],> 100 µM
same,TGI,[53],> 100 µM
same,TGI,[54],> 100 µM
same,TGI,[55],> 100 µM
same,TGI,[56],> 100 µM
CC(=O)OCc1c2ccccc2c(C)c2c1cc(F)c1ccccc12,TGI,[1],46.9 µM
same,TGI,[2],82.3 µM
same,TGI,[3],32.6 µM
same,TGI,[4],68.4 µM
same,TGI,[5],72.3 µM
same,TGI,[6],59.4 µM
same,TGI,[7],77.9 µM
same,TGI,[9],47.4 µM
same,TGI,[10],> 100 µM
same,TGI,[11],35.2 µM
same,TGI,[12],42.4 µM
same,TGI,[13],> 100 µM
same,TGI,[57],67.8 µM
same,TGI,[14],> 100 µM
same,TGI,[15],26.4 µM
same,TGI,[16],> 100 µM
same,TGI,[17],> 100 µM
same,TGI,[58],> 100 µM
same,TGI,[18],78.9 µM
same,TGI,[19],43.6 µM
same,TGI,[20],> 100 µM
same,TGI,[21],> 100 µM
same,TGI,[22],58.8 µM
same,TGI,[23],> 100 µM
same,TGI,[26],64.3 µM
same,TGI,[27],> 100 µM
same,TGI,[29],58.4 µM
same,TGI,[30],46.3 µM
same,TGI,[31],59.8 µM
same,TGI,[32],98 µM
same,TGI,[33],85.3 µM
same,TGI,[34],67.3 µM
same,TGI,[35],40.5 µM
same,TGI,[36],57.9 µM
same,TGI,[37],> 100 µM
same,TGI,[38],> 100 µM
same,TGI,[39],45.2 µM
same,TGI,[40],25.6 µM
same,TGI,[41],> 100 µM
same,TGI,[59],> 100 µM
same,TGI,[42],> 100 µM
same,TGI,[43],63 µM
same,TGI,[44],> 100 µM
same,TGI,[45],> 100 µM
same,TGI,[46],> 100 µM
same,TGI,[47],36.4 µM
same,TGI,[48],> 100 µM
same,TGI,[49],57.5 µM
same,TGI,[50],33.8 µM
same,TGI,[51],82.4 µM
same,TGI,[52],69.6 µM
same,TGI,[53],87 µM
same,TGI,[54],> 100 µM
same,TGI,[55],> 100 µM
same,TGI,[56],75.2 µM
c1cc[c]([Sn][c]2ccccc2)cc1,GI50,[1],27.2 µM
same,TGI,[1],69.8 µM
same,GI50,[2],17.4 µM
same,TGI,[2],31.6 µM
same,GI50,[3],19.2 µM
same,TGI,[3],60.3 µM
same,GI50,[4],15 µM
same,TGI,[4],23.3 µM
same,GI50,[5],13.8 µM
same,TGI,[5],18.3 µM
same,GI50,[6],23.3 µM
same,TGI,[6],45.5 µM
same,GI50,[7],24 µM
same,TGI,[7],55.2 µM
same,GI50,[8],20.5 µM
same,TGI,[8],41 µM
same,GI50,[9],24 µM
same,TGI,[9],58.8 µM
same,GI50,[10],18.2 µM
same,TGI,[10],37.7 µM
same,GI50,[11],15.9 µM
same,TGI,[11],37.7 µM
same,GI50,[12],20.2 µM
same,TGI,[12],37 µM
same,GI50,[13],53.1 µM
same,TGI,[13],> 100 µM
same,GI50,[57],20.5 µM
same,TGI,[57],41.9 µM
same,GI50,[14],21.5 µM
same,TGI,[14],51.5 µM
same,GI50,[15],16.8 µM
same,TGI,[15],35.9 µM
same,GI50,[16],21.8 µM
same,TGI,[16],54.8 µM
same,GI50,[17],15 µM
same,TGI,[17],> 57.5 µM
same,GI50,[58],18.6 µM
same,TGI,[58],45.3 µM
same,GI50,[18],25.2 µM
same,TGI,[18],69 µM
same,GI50,[19],21 µM
same,TGI,[19],47 µM
same,GI50,[20],26.4 µM
same,TGI,[20],90.9 µM
same,GI50,[21],16.8 µM
same,TGI,[21],33.6 µM
same,GI50,[22],19.4 µM
same,TGI,[22],42 µM
same,GI50,[23],14.5 µM
same,TGI,[23],36 µM
same,GI50,[25],19.8 µM
same,TGI,[25],49.2 µM
same,GI50,[26],15.4 µM
same,TGI,[26],23.2 µM
same,GI50,[27],19 µM
same,TGI,[27],47.5 µM
same,GI50,[28],14 µM
same,TGI,[28],20.2 µM
same,GI50,[29],30.2 µM
same,TGI,[29],> 100 µM
same,GI50,[30],20.6 µM
same,TGI,[30],42 µM
same,GI50,[31],39.8 µM
same,TGI,[31],> 100 µM
same,GI50,[32],24 µM
same,TGI,[32],> 92.3 µM
same,GI50,[33],14.5 µM
same,TGI,[33],25 µM
same,GI50,[34],21.6 µM
same,TGI,[34],45 µM
same,GI50,[35],21.9 µM
same,TGI,[35],62.7 µM
same,GI50,[36],12.4 µM
same,TGI,[36],36.5 µM
same,GI50,[37],19.4 µM
same,TGI,[37],38.5 µM
same,GI50,[38],21.6 µM
same,TGI,[38],48.8 µM
same,GI50,[39],13.3 µM
same,TGI,[39],17.9 µM
same,GI50,[40],14.1 µM
same,TGI,[40],32.7 µM
same,GI50,[59],27.8 µM
same,TGI,[59],69.7 µM
same,GI50,[42],23.2 µM
same,TGI,[42],47.7 µM
same,GI50,[43],35.6 µM
same,TGI,[43],> 100 µM
same,GI50,[44],28.3 µM
same,TGI,[44],> 61.2 µM
same,GI50,[45],20.1 µM
same,TGI,[45],51.2 µM
same,GI50,[46],24.4 µM
same,TGI,[46],56.7 µM
same,GI50,[47],24.3 µM
same,TGI,[47],59.4 µM
same,GI50,[48],13.6 µM
same,TGI,[48],19.2 µM
same,GI50,[49],17.8 µM
same,TGI,[49],35 µM
same,GI50,[50],20 µM
same,TGI,[50],42.1 µM
same,GI50,[51],20 µM
same,TGI,[51],61 µM
same,GI50,[52],16.8 µM
same,TGI,[52],31.9 µM
same,GI50,[53],13.4 µM
same,TGI,[53],18.8 µM
same,GI50,[54],29.6 µM
same,TGI,[54],> 72.9 µM
same,GI50,[55],32.7 µM
same,TGI,[55],> 100 µM
same,GI50,[56],38.9 µM
same,TGI,[56],> 100 µM
